{"source": "patent US6673555B1", "about": "“Methods of using SCAP antagonists” (SmithKline Beecham Corporation, priority 1999, dated 2004)", "key": {"[1]": {"test_system": "human SREBP-2", "test": "Western blot analysis of the proteolytic maturation of SREBP-2 in HepG2 cells", "format": "cell-based", "settings": "1 μM, 18 hours", "method": "The involvement of the SREBP pathway was confirmed by Western Blot immunodetection of precursor and mature forms of human SREBP-2.\nHepG2 cells were seeded in 150 cm^2 flasks at 8×10^6 cells and transfected with 10 μg of pTK-HSV-BP2 using Fugene 6 and incubated for 20 h before addition of 1 μM of example 1 or vehicle. After 18 h of incubation, membrane fraction and nuclear extracts were obtained using the method described by Hua, X. et al., J. Biol. Chem. 270: 29422-27 (1995).\nProteins (20 μg/load) were separated on 8% SDS-PAGE and blotted onto BA 83 nitrocellulose membrane (Schleisher & Schuell). The HSV tag present in the amino terminus of SREBP-2 was detected using 0.2 μg/ml of anti-HSV antibodies after saturation with 10% non-fat milk.\nHepG2 cells were transfected (FIG. 4, lane b-e) or not transfected (FIG. 4, lane a) with pTK-HSV-BP2 vector encoding human SREBP-2 preceded by HSV tag. Cells were treated for 18 hours with Example 1 (1 μM) (lane c, d) or vehicle (lane a, b, e) and nuclear extract (lane d, e) and membrane (lane a-c) were isolated and analysed by western blotting using anti-HSV antibodies."}, "[2]": {"test_system": "golden Syrian hamster previously fed with a cholesterol rich diet", "test": "Lipoprotein and lipid in sera of cholesterol-fed hamsters (ultracentrifugation, enzymatic assays, SDS-PAGE)", "format": "in vivo", "settings": "for apoB100: VLDL and LDL fraction; for reduction of LDL-cholesterol / reduction of triglycerides: Table 1", "method": "The in vivo activity of SCAP antagonist was determined in the golden Syrian hamster previously fed with a cholesterol rich diet. Male Syrian golden hamsters (Janvier, France) were kept on a 12 h light-dark cycle. Animals (7 weeks age, 150 g) were fed for 2 weeks with a high cholesterol diet containing 0.2% cholesterol plus 10% coconut oil. Animals (n=5 per group) were then treated orally with vehicle, (0.5% methylcellulose, 5% Tween 80) or Example 1 at 1, 5 or 20 mg/kg in the vehicle, once a day for 3 days.\n4h after the last treatment, animals were anesthetized, blood was collected and serum was prepared by centrifugation. Total cholesterol was determined using a enzymatic assay kit (Biomerieux, France). Lipoproteins were separated by ultracentrifugation using a single KBr concentration (density 1.063). Cholesterol and triglycerides associated with the upper phase (corresponding to VLDL +LDL lipoproteins) and cholesterol associated with the lower phase (corresponding to the HDL fraction) were determined using the enzymatic assays kits. Apolipoprotein B100 associated with VLDL and LDL lipoprotein fraction were analysed by SDS-PAGE and Coomassie blue staining. Lipoproteins were also separated by high-performance gel filtration chromatography with on-line colorimetric determination of cholesterol. Lipoprotein separation was performed on a single superose 6HR column (Pharmacia) with an elution buffer consisting of 10 mM tris, 1 mM EDTA and 150 mM NaCl adjusted at pH 7.4. Cholesterol was measured on line using the RTU enzymatic assay (Biomerieux). The column was calibrated using human lipoproteins and the various peaks in cholesterol profiles are designated VLDL, LDL and HDL for simplicity.\nCholesterol-fed animals were treated for 3 days with Example 1 at 1 and 20 mg/kg. […] In another experiment, lipoproteins were separated by gel filtration and cholesterol content was quantified on-line. As shown in FIG. 7 Example 1 at […] strongly reduces atherogenic particles: 79% reduction of VLDL cholesterol and 60% reduction of LDL-cholesterol."}, "[3]": {"settings": "1 mg/kg oral once a day for 3 days"}, "[4]": {"settings": "1 mg/kg oral once a day for 3 days, serum 4h after last treatment"}, "[5]": {"settings": "20 mg/kg oral once a day for 3 days"}, "[6]": {"settings": "20 mg/kg oral once a day for 3 days, serum 4h after last treatment"}}}
{"molecule": "CCOc1cc(CC)ccc1C1CCN(CCCCNC(=O)c2ccc(NC(=O)c3ccc(Cl)cc3)cc2)CC1", "note": "[Example 1, 4-(4-Chloro-benzoylamino)-N-{4-[4-(2-ethoxy-4-ethyl-phenyl)-piperidin-1-yl]-butyl}-benzamide]", "values": [{"measurement": "amount of SREBP-2 precursor form in the membrane", "setting": "[1]; HepG2 transfected with pTK-HSV-BP2, FIG. 4", "result": "reduces the amount of SREBP-2 precursor form present in the membrane"}, {"measurement": "amount of mature SREBP-2 in the nucleus", "setting": "[1]; HepG2 transfected with pTK-HSV-BP2, nuclear extract, FIG. 4", "result": "strongly increases the amount of mature SREBP-2 in the nucleus"}, {"measurement": "CHOLESTEROL HDL chol, % of control", "setting": "[2]; [3]", "result": 123, "unit": "%"}, {"measurement": "CHOLESTEROL LCLchol, % of control", "setting": "[2]; [3]", "result": 50, "unit": "%"}, {"measurement": "CHOLESTEROL TOTAL, % of control", "setting": "[2]; [3]", "result": 79, "unit": "%"}, {"measurement": "Triglycerides TOTAL, % of control", "setting": "[2]; [3]", "result": "37% (p < 0.001)"}, {"measurement": "apoB100, % of control", "setting": "[2]; [3]", "result": "62% (p < 0.005)"}, {"measurement": "apoB100", "setting": "[2]; [3]", "result": "3.1 ± 0.4", "unit": "S.U."}, {"measurement": "CHOLESTEROL HDL chol", "setting": "[2]; [4]", "result": "1.5 ± 0.1", "unit": "g/L"}, {"measurement": "CHOLESTEROL LCLchol", "setting": "[2]; [4]", "result": "0.95 ± 0.2", "unit": "g/L"}, {"measurement": "CHOLESTEROL TOTAL", "setting": "[2]; [4]", "result": "3.1 ± 0.3", "unit": "g/L"}, {"measurement": "Triglycerides TOTAL", "setting": "[2]; [4]", "result": "1.3 ± 0.2", "unit": "g/L"}, {"measurement": "reduction of LDL-cholesterol", "setting": "[2]; 1 mg/kg, 3 days", "result": 50, "unit": "%"}, {"measurement": "reduction of triglycerides", "setting": "[2]; 1 mg/kg, 3 days", "result": 63, "unit": "%"}, {"measurement": "CHOLESTEROL HDL chol, % of control", "setting": "[2]; [5]", "result": 113, "unit": "% NS"}, {"measurement": "CHOLESTEROL LCLchol, % of control", "setting": "[2]; [5]", "result": 17, "unit": "%"}, {"measurement": "CHOLESTEROL TOTAL, % of control", "setting": "[2]; [5]", "result": 55, "unit": "%"}, {"measurement": "Triglycerides TOTAL, % of control", "setting": "[2]; [5]", "result": "24% (p < 0.001)"}, {"measurement": "apoB100, % of control", "setting": "[2]; [5]", "result": "25% (p < 0.005)"}, {"measurement": "apoB100", "setting": "[2]; [5]", "result": "1.2 ± 0.2", "unit": "S.U."}, {"measurement": "CHOLESTEROL LCLchol", "setting": "[2]; [6]", "result": "0.3 ± 0.1", "unit": "g/L"}, {"measurement": "CHOLESTEROL TOTAL", "setting": "[2]; [6]", "result": "2.1 ± 0.3", "unit": "g/L"}, {"measurement": "Triglycerides TOTAL", "setting": "[2]; [6]", "result": "0.8 ± 0.02", "unit": "g/L"}, {"measurement": "reduction of LDL-cholesterol", "setting": "[2]; 20 mg/kg, 3 days", "result": 83, "unit": "%"}, {"measurement": "reduction of triglycerides", "setting": "[2]; 20 mg/kg, 3 days", "result": 76, "unit": "%"}, {"measurement": "effect on Apolipoprotein B100", "setting": "[2]; 1 and 20 mg/kg, 3 days", "result": "reduced to the same extent"}, {"measurement": "effect on HDL-cholesterol", "setting": "[2]; 1 and 20 mg/kg, 3 days", "result": "unaffected"}]}
